{"source": "the supplement of paper PMC8837787", "note": "Counter-ions that a name gives are not always drawn.", "data": [{"system": "Saccharomyces cerevisiae ABC16-Green Monster", "assay": "growth inhibition at single dose (up to 150 µM), below the 70% cut-off for dose-response; higher = more potent", "settings": "18 h; 30 °C; YPD", "method_in_brief": "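The entry is percent growth inhibition of drug-sensitive S. cerevisiae ABC16-Green Monster cells. After overnight growth in YPD at 30 °C, cells were diluted to OD600 0.1–0.2 and exposed to each library compound at 150 µM in 200 µl per well, in biological duplicates with untreated cultures beside them, and OD600 was read at 0 h and after 18 h at 30 °C. Any compound under 70% in both replicates was not carried to dose-response.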", "units": {"growth inhibition at single dose": "%"}, "values": [{"smiles": "COc1cccc(CC(=O)N2CCC(n3c(C)nc4ccc(F)cc43)CC2)c1", "growth inhibition at single dose": "< 70"}, {"smiles": "Cc1ccc(O)c(C(=O)NCCc2ccc3c(c2)OCCO3)c1", "growth inhibition at single dose": "< 70"}, {"smiles": "CCC(c1ccccc1)c1nn2c(-c3cccs3)nnc2s1", "note": "(centres undefined)", "growth inhibition at single dose": "< 70"}, {"smiles": "CCOC(=O)c1cn(CC)c2cc(N(C)CCc3ccc(OC)c(OC)c3)c(F)cc2c1=O", "growth inhibition at single dose": "< 70"}, {"smiles": "Cc1ccc(OCCNC(=O)c2[nH]c3c(c2C)C(=O)CCC3)c(C)c1", "growth inhibition at single dose": "< 70"}, {"smiles": "Cc1c(CN2CCN(c3ccccn3)CC2)noc1-c1ccc(F)cc1", "growth inhibition at single dose": "< 70"}, {"smiles": "Cc1ccccc1NC(=O)c1cc2ccccc2c(CN2CCC3(CC2)OCCO3)c1O", "growth inhibition at single dose": "< 70"}, {"smiles": "N#Cc1nc(Cc2cccc3ccccc23)oc1N1CCN(C(c2ccccc2)c2ccccc2)CC1", "growth inhibition at single dose": "< 70"}, {"smiles": "CC[n+]1ccccc1/C=C/c1ccc(N(C)C)cc1", "growth inhibition at single dose": "< 70"}, {"smiles": "Cc1cc(=O)nc(N/N=C/c2c(C)nn(-c3cccc(C(F)(F)F)c3)c2Cl)[nH]1", "growth inhibition at single dose": "< 70"}, {"smiles": "CC(C)(C)c1cc(C(=O)N2CCN(c3nccnc3C#N)CC2)n(Cc2ccccc2)n1", "growth inhibition at single dose": "< 70"}, {"smiles": "Cc1cc(C)c(C#N)c(SCC(=O)N(C)Cc2cnn(-c3ccccc3)c2)n1", "growth inhibition at single dose": "< 70"}, {"smiles": "CNCCCNc1ccnc2cc(Cl)ccc12", "growth inhibition at single dose": "< 70"}, {"smiles": "Cc1c(C)n(CC(O)CNC2CCCCC2C)c2ccccc12", "note": "(centres undefined)", "growth inhibition at single dose": "< 70"}, {"smiles": "Cc1ncc(-c2ccnc(Nc3ccc(S(C)(=O)=O)cc3)n2)n1C(C)C", "growth inhibition at single dose": "< 70"}, {"smiles": "O=C(Nc1ccnc(-c2cccnc2)n1)c1cc(C(F)(F)F)cc(C(F)(F)F)c1", "growth inhibition at single dose": "< 70"}, {"smiles": "Cc1cc(C(=O)Oc2ccccc2C(N)=O)c(C)n1Cc1ccco1", "growth inhibition at single dose": "< 70"}, {"smiles": "O=C1O[C@@H](CO)CN1c1cc(F)c(C2=CCN(Cc3ccccc3)CC2)c(F)c1", "growth inhibition at single dose": "< 70"}, {"smiles": "COc1ccc(-c2csc3ncnc(NCC(=O)NC(C)C)c23)cc1", "growth inhibition at single dose": "< 70"}, {"smiles": "COc1cc(C2=NCCN2)cc2cc(-c3ccc(C4=NCCN4)cc3)oc12", "growth inhibition at single dose": "< 70"}, {"smiles": "COc1ccc(Nc2nc(NN=Cc3ccc(O)cc3)nc(Nc3ccc([N+](=O)[O-])cc3)n2)cc1", "growth inhibition at single dose": "< 70"}, {"smiles": "Cc1cc(N2CCN(C3CCCC3)CC2)n2c(nc3ccccc32)c1C#N", "growth inhibition at single dose": "< 70"}, {"smiles": "Cc1cccc(NC(=O)CN2C(=O)/C(=C(/C#N)c3nc4ccccc4[nH]3)c3ccccc32)c1", "growth inhibition at single dose": "< 70"}, {"smiles": "Cn1ncc2c(N3CCN(CC(=O)Nc4nc(-c5c[nH]c6ccccc56)cs4)CC3)ncnc21", "growth inhibition at single dose": "< 70"}]}, {"system": "Saccharomyces cerevisiae ABC16-Green Monster", "assay": "not given", "settings": "18 h; 30 °C; YPD", "protocol": "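Growth inhibition of the drug-sensitive S. cerevisiae ABC16-Green Monster strain (16 ABC transporters deleted) in YPD at 30 °C for 18 h. […] dilution series […] in biological replicates; IC50 from OD600 (18 h minus 0 h) fitted by variable-slope nonlinear regression in GraphPad Prism. Library compounds were first screened at 150 µM, and only those with at least 70% inhibition went to dose-response; the rest are marked inactive.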", "units": {"IC50 growth inhibition": "µM"}, "values": [{"smiles": "CCCn1c(NC(=O)c2ccc3ccccc3n2)nc2ccccc21", "IC50 growth inhibition": 40}, {"smiles": "O=C1c2ccccc2C2=Nc3ccccc3SC(c3cccc(F)c3)C12", "note": "(centres undefined)", "IC50 growth inhibition": 1.68}, {"smiles": "O=C(C1CCCCC1)N1CC(=O)N2CCc3ccccc3C2C1", "note": "(centres undefined) [Praziquantal]", "IC50 growth inhibition": "> 75"}, {"smiles": "Cn1ncc2c(NCc3ccc(-c4ccc(Cl)cc4)o3)ncnc21", "IC50 growth inhibition": 61.9}, {"smiles": "CN(CC=CC#CC(C)(C)C)Cc1cccc2ccccc12.Cl", "note": "[Terbinafine]", "IC50 growth inhibition": 76.9}, {"smiles": "Cn1ncc2c(N3CCOCC3)nc(NCCc3c[nH]c4ccccc34)nc21", "IC50 growth inhibition": 69.3}, {"smiles": "Clc1ccc(Cl)c(CO[C@H]2CCCC[C@@H]2n2ccnc2)c1", "IC50 growth inhibition": 68.6}, {"smiles": "Cc1cc(=O)nc(N/N=C/c2cc(C)n(CC(F)(F)F)c2C)[nH]1", "IC50 growth inhibition": 81.9}, {"smiles": "Cc1nn(C(C)(C)C)c(C)c1/C=N/OC(=O)Nc1ccc(Cl)cc1", "IC50 growth inhibition": 39.1}, {"smiles": "O=C(CC1NCCCC1O)Cn1cnc2ccccc2c1=O", "note": "(centres undefined) [Febrifugine]", "IC50 growth inhibition": "> 75"}, {"smiles": "FC(F)(F)c1cccc(Nc2nc3ccccc3nc2Nc2cccc(C(F)(F)F)c2)c1", "IC50 growth inhibition": 1.6}, {"smiles": "CC(C)c1ccc(C2C3CCc4ccccc4C3=NN2CCO)cc1", "note": "(centres undefined)", "IC50 growth inhibition": 49.9}, {"smiles": "Cc1nc([P+](c2ccccc2)(c2ccccc2)c2ccccc2)c(N2CCCCC2)o1", "note": "[GNF-Pf-445]", "IC50 growth inhibition": 9.44}, {"smiles": "COC(=O)Nc1nc2cc(C(=O)c3ccccc3)ccc2[nH]1", "IC50 growth inhibition": 58.4}, {"smiles": "Cc1cc(C2CCCCC2)n(O)c(=O)c1", "note": "[Ciclopirox]", "IC50 growth inhibition": 33.4}, {"smiles": "FC(F)(F)c1cccc(-c2nc3c(NCc4ccncc4)nccc3[nH]2)c1", "IC50 growth inhibition": 41.6}, {"smiles": "Cc1cc(NC(C)C)n2ncc(-c3ccc(F)cc3)c2n1", "IC50 growth inhibition": 90.7}, {"smiles": "CC1(C)C=Cc2cc(C(=N)NOC(=O)c3ccccc3)ccc2O1", "IC50 growth inhibition": 4.33}, {"smiles": "Cc1ccc(N/N=C/c2c3ccccc3cc3ccccc23)cc1Cl", "IC50 growth inhibition": 14}, {"smiles": "Cc1nc([P+](c2ccccc2)(c2ccccc2)c2ccccc2)c(SCc2ccccc2)o1", "note": "[GNF-Pf-3891]", "IC50 growth inhibition": 5.85}, {"smiles": "O=C(c1c[nH]c(-c2ccnc(N3CCCC3)c2)c1)c1ccccc1O", "IC50 growth inhibition": 60.6}, {"smiles": "CNC(=O)c1nn(C)c2c1C(C)(C)Cc1cnc(Nc3ccc(N4CCN(C)CC4)cc3)nc1-2", "note": "[milciclib maleate]", "IC50 growth inhibition": 84.1}, {"smiles": "COc1ccc(Cn2cnc3c(-c4ccco4)nc(Cl)nc32)cc1", "IC50 growth inhibition": 51.6}, {"smiles": "CNC1CCC(c2ccc(Cl)c(Cl)c2)c2ccccc21.Cl", "note": "(centres undefined) [Sertraline]", "IC50 growth inhibition": 13.4}, {"smiles": "Cc1cc(C)n(-c2ccc(CN3c4ccc(S(N)(=O)=O)cc4CC3C)cc2)n1", "note": "(centres undefined)", "IC50 growth inhibition": 129}, {"smiles": "Br.Cc1ccnc(Nc2nc(-c3ccccn3)cs2)c1", "note": "[GNF-Pf-4739]", "IC50 growth inhibition": 4.6}, {"smiles": "CC1COC(Cn2cncn2)(c2ccc(Oc3ccc(Cl)cc3)cc2Cl)O1", "note": "(centres undefined) [Difenoconazole]", "IC50 growth inhibition": 3.17}, {"smiles": "COC1OC2OC3(C)CCC4C(C)CCC(C1C)C24OO3", "note": "(centres undefined) [Artemether]", "IC50 growth inhibition": 70.6}, {"smiles": "CCCCCCCCCCCCCCCCOP(=O)([O-])OCC[N+](C)(C)C", "note": "[Miltefosine]", "IC50 growth inhibition": 9.3}, {"smiles": "Cc1c(C(=O)Nc2ccccc2O)cnn1-c1cccc(C(F)(F)F)c1", "IC50 growth inhibition": 23.9}, {"smiles": "Cc1cc(C(=O)NNC(=O)c2c(C)nc3ccccn23)c2nc3n(c2n1)CCCCC3", "IC50 growth inhibition": 41.8}, {"smiles": "OC1=C2C(=Nc3ccccc3SC2c2ccccc2)c2ccccc21", "note": "(centres undefined) [GNF-Pf-4583]", "IC50 growth inhibition": 2.54}, {"smiles": "Clc1ccc(COC(Cn2ccnc2)c2ccc(Cl)cc2Cl)c(Cl)c1", "note": "(centres undefined) [Miconazole]", "IC50 growth inhibition": 0.007}, {"smiles": "O=C1NCN(c2ccccc2)C12CCN(CCCC(c1ccc(F)cc1)c1ccc(F)cc1)CC2", "note": "[Fluspirilene]", "IC50 growth inhibition": 23.3}, {"smiles": "Cc1cc(C(=O)Cn2nnc3ccccc3c2=O)c(C)n1-c1ccccc1F", "IC50 growth inhibition": 20.5}, {"smiles": "Cc1cc(C(C)(C)CC(C)(C)C)ccc1OCCOCC[N+](C)(C)Cc1ccccc1", "note": "[KAAA726]", "IC50 growth inhibition": 3.74}, {"smiles": "O=C(Nc1ccc2oc(-c3cccc4ccccc34)nc2c1)c1ccc([N+](=O)[O-])o1", "note": "[GNF-PF-2740]", "IC50 growth inhibition": 0.941}, {"smiles": "Cc1ccc(-n2nc(C(C)(C)C)cc2NC(=O)NCc2cc(F)ccc2Oc2ccc3c(cnn3CCO)c2)cc1", "note": "[Pexmetinib]", "IC50 growth inhibition": "> 75"}, {"smiles": "COc1cc(Nc2ncc(F)c(Nc3ccc4c(n3)NC(=O)C(C)(C)O4)n2)cc(OC)c1OC", "note": "[Tamatinib besilate]", "IC50 growth inhibition": "> 75"}, {"smiles": "CCCCCCC(O)(c1ccc(F)cc1)C(CN1CCOCC1)c1ccccc1", "note": "(centres undefined)", "IC50 growth inhibition": 17.3}]}]}
